# From patent US20220002279A1, “NOVEL IMIDAZOLE DERIVATIVE” (priority 2018, published 2022)
# Read-outs that look alike come from different tables or passages of the source.
# How the values were obtained:
# [1] = target: T1, Escherichia coli LpxC enzyme (Escherichia coli, UniProt P0A725); assay: Inhibitory activity on Escherichia coli LpxC enzyme (fluorescamine method); format: biochemical
# T1 construct: made in house; host or cells: Escherichia coli
# T1 sequence (P0A725 1-305): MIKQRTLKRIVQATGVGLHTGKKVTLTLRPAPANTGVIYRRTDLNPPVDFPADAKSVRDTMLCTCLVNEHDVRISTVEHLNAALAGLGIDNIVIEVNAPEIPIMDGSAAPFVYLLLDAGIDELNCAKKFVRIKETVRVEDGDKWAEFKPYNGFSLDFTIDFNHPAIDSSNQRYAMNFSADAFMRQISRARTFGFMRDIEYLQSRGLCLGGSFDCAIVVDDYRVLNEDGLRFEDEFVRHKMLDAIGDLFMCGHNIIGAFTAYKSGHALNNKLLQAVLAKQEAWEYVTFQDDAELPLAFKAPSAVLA
# Protocol: To assay the activity of Escherichia coli LpxC enzyme, LpxC was reacted with its substrate, UDP-3-O-(R-3-hydroxymyristoyl)-N-acetylglucosamine, and the amount of the reaction product was quantified by the amino groups present in the product
# The reaction was terminated by the addition of 1.0 mg/mL-fluorescamine dissolved in a solvent obtained by mixing an equal amount of acetonitrile and dimethylformamide with the reaction mixture, and then, a 0.2 mol/L-sodium phosphate buffer solution (pH 8.0) was added thereto, and the amount of the reaction product was detected at an excitation wavelength/fluorescence wavelength=390 nm/495 nm. An inhibition curve was obtained by performing the aforementioned reaction in the presence of various concentrations of test compounds.
# [2] = system: Pseudomonas aeruginosa strain ATCC27853; assay: Antimicrobial activity, MIC by broth microdilution; format: cell-based; details: ATCC27853, 18 h, read-out: MIC Pseudomonas aeruginosa ATCC27853
# Procedure, shortened: (§1)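 MIC read by eye as the lowest drug level lacking visible growth after roughly 18 h at 35° C. Cells from heart infusion agar, set to McFarland 0.5 and diluted, were inoculated at about 5×10^5 CFU/mL into cation-adjusted Mueller-Hinton broth with compound, per adapted CLSI microdilution.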
# [3] = system: Escherichia coli strain ATCC25922; assay: Antimicrobial activity, MIC by broth microdilution; format: cell-based; details: ATCC25922, 18 h, read-out: MIC Escherichia coli ATCC25922
# Procedure, shortened: as §1
# [4] = system: Klebsiella pneumoniae strain ATCC13883; assay: Antimicrobial activity, MIC by broth microdilution; format: cell-based; details: read-out: MIC Klebsiella pneumoniae ATCC13883
# Procedure, shortened: as §1
# [5] = fluorescamine detection, 3.1 nmol/L enzyme, 20 μmol/L substrate, pH 6.5, 120 min, read-out: IC50 (inhibitory activity on Escherichia coli LpxC enzyme, Fluoresamine method)
# [6] = cation-adjusted Mueller-Hinton broth, about 5×10^5 CFU/mL, 35° C., about 18 hours
# [7] = ATCC13883, cation-adjusted Mueller-Hinton broth, about 5×10^5 CFU/mL, 35° C., about 18 hours
Compound,"IC50 [1, 5] [nM]","MIC [2, 6] [µg/mL]","MIC [3, 6] [µg/mL]","MIC [4, 7] [µg/mL]",IC50 [1] [nM],MIC [2] [µg/mL],MIC [3] [µg/mL],"MIC ([4]; ATCC13883, 18 h) [µg/mL]"
"COCC(=O)N1C[C@@H]2[C@@H](C#Cc3ccc(-c4cc(Cn5ccnc5[C@H](C)O)no4)cc3)[C@@H]2C1 [Compound 76, 1-[(1R,5S,6s)-6-({4-[3-({2-[(1S)-1-Hydroxyethyl]-1H-imidazol-1-yl}methyl)-1,2-oxazol-5-yl]phenyl}ethynyl)-3-azabicyclo[3.1.0]hexan-3-yl]-2-methoxyethan-1-one]",38,32,1,2,–,–,–,–
"C[C@H](O)C(=O)N1C[C@@H]2[C@@H](C#Cc3ccc(-c4cc(Cn5ccnc5[C@H](C)O)no4)cc3)[C@@H]2C1 [Compound 77, (2S)-2-hydroxy-1-[(1R,5S,6R)-6-({4-[3-({2-[(1S)-1-hydroxyethyl]-1H-imidazol-1-yl}methyl)-1,2-oxazol-5-yl]phenyl}ethynyl)-3-azabicyclo[3.1.0]hexan-3-yl]propan-1-one]",67.4,32,2,2,–,–,–,–
"COC(=O)N1C[C@@H]2[C@@H](C#Cc3ccc(-c4cc(Cn5ccnc5[C@H](C)O)no4)cc3)[C@@H]2C1 [Compound 78, Methyl (1R,5S,6s)-6-({4-[3-({2-[(1S)-1-hydroxyethyl]-1H-imidazol-1-yl}methyl)-1,2-oxazol-5-yl]phenyl}ethynyl)-3-azabicyclo[3.1.0]hexane-3-carboxylate]",–,–,–,–,13.8,32,0.5,0.5
"C[C@H](O)c1nccn1Cc1cc(-c2ccc(C#C[C@@H]3[C@H]4CN(C(=O)C(O)CO)C[C@@H]34)cc2)on1 (stereo partly drawn) [Compound 79, 2,3-dihydroxy-1-[(1R,5S,6s)-6-({4-[3-({2-[(1S)-1-hydroxyethyl]-1H-imidazol-1-yl}methyl)-1,2-oxazol-5-yl]phenyl}ethynyl)-3-azabicyclo[3.1.0]hexan-3-yl]propan-1-one]",92.7,32,2,4,–,–,–,–
"C[C@H](O)c1nccn1Cc1cc(-c2ccc(C#C[C@@H]3[C@H]4CN(S(N)(=O)=O)C[C@@H]34)cc2)on1.Cl [Compound 81, (1R,5S,6s)-6-((4-[3-({2-[(1S)-1-Hydroxyethyl]-1H-imidazol-1-yl}methyl)-1,2-oxazol-5-yl]phenyl}ethynyl)-3-azabicyclo[3.1.0]hexane-3-sulfonamide hydrochloride]",69.6,> 4,0.5,1,–,–,–,–
"C[C@H](O)c1nccn1[C@H](CN)c1cc(-c2ccc(C#CC3CC3)cc2)no1 [Compound 82, (1S)-1-{1-[(1R)-2-Amino-1-{3-[4-(cyclopropylethynyl)phenyl]-1,2-oxazol-5-yl}ethyl]-1H-imidazol-2-yl}ethan-1-ol]",82,16,0.12,0.25,–,–,–,–
"C[C@H](O)c1nccn1Cc1cc(-c2ccc(C#C[C@@H]3[C@H]4CNC[C@@H]34)cc2)no1 [Compound 83, (1S)-1-(1-{[3-(4-{[(1R,5S,6s)-3-azabicyclo[3.1.0]hexan-6-yl]ethynyl}phenyl)-1,2-oxazol-5-yl]methyl}-1H-imidazol-2-yl)ethan-1-ol]",136,8,8,8,–,–,–,–
"COCCN1C[C@@H]2[C@@H](C#Cc3ccc(-c4cc(Cn5ccnc5[C@H](C)O)on4)cc3)[C@@H]2C1 [Compound 84, (1S)-1-(1-{[3-(4-{[(1R,5S,6s)-3-(2-methoxyethyl)-3-azabicyclo[3.1.0]hexan-6-yl]ethynyl}phenyl)-1,2-oxazol-5-yl]methyl}-1H-imidazol-2-yl)ethan-1-ol]",102,16,0.5,0.5,–,–,–,–
"COCC(O)CN1C[C@@H]2[C@@H](C#Cc3ccc(-c4cc(Cn5ccnc5[C@H](C)O)on4)cc3)[C@@H]2C1 (stereo partly drawn) [Compound 85, 1-[(1R,5S,6s)-6-({4-[5-({2-[(1S)-1-hydroxyethyl]-1H-imidazol-1-yl}methyl)-1,2-oxazol-3-yl]phenyl}ethynyl)-3-azabicyclo[3.1.0]hexan-3-yl]-3-methoxypropan-2-ol]",96.8,8,0.5,0.5,–,–,–,–
"CC(=O)N1C[C@@H]2[C@@H](C#Cc3ccc(-c4cc(Cn5ccnc5[C@H](C)O)on4)cc3)[C@@H]2C1 [Compound 86, 1-[(1R,5S,6s)-6-({4-[5-((2-[(1S)-1-hydroxyethyl]-1H-imidazol-1-yl}methyl)-1,2-oxazol-3-yl]phenyl}ethynyl)-3-azabicyclo[3.1.0]hexan-3-yl]ethan-1-one]",46.4,32,1,1,–,–,–,–
"CC(=O)N[C@H]1C[C@H](C#Cc2ccc(-c3cc(Cn4ccnc4[C@H](C)O)no3)cc2)C1 [Compound 87, N-[trans-3-({4-[3-({2-[(1S)-1-hydroxyethyl]-1H-imidazol-1-yl}methyl)-1,2-oxazol-5-yl]phenyl}ethynyl)cyclobutyl]acetamide]",25.2,> 128,0.5,1,–,–,–,–
"CNC(=O)N1C[C@@H]2[C@@H](C#Cc3ccc(-c4cc(Cn5ccnc5[C@H](C)O)no4)cc3)[C@@H]2C1 [Compound 92, (1R,5S,6s)-6-({4-[3-({2-[(1S)-1-Hydroxyethyl]-1H-imidazol-1-yl}methyl)-1,2-oxazol-5-yl]phenyl}ethynyl)-N-methyl-3-azabicyclo[3.1.0]hexan-3-carboxamide]",54.9,16,0.5,1,–,–,–,–
"C[C@H](O)c1nccn1Cc1cc(-c2ccc(C#C[C@@H]3[C@H]4CN(CCCCC(=O)O)C[C@@H]34)cc2)on1 [Compound 93, 5-[(1R,5S,6s)-6-({4-[3-((2-[(1S)-1-hydroxyethyl]-1H-imidazol-1-yl}methyl)-1,2-oxazol-5-yl]phenyl}ethynyl)-3-azabicyclo[3.1.0]hexan-3-yl]pentanoic acid]",371,8,4,4,–,–,–,–
"C[C@H](O)c1nccn1Cc1cc(-c2ccc(C#C[C@@H]3[C@H]4CN(CCCCCC(=O)O)C[C@@H]34)cc2)on1 [Compound 94, 6-[(1R,5S,6s)-6-({4-[3-({2-[(1S)-1-hydroxyethyl]-1H-imidazol-1-yl}methyl)-1,2-oxazol-5-yl]phenyl}ethynyl)-3-azabicyclo[3.1.0]hexan-3-yl]hexanoic acid]",412,16,2,4,–,–,–,–
"C[C@H](O)c1nccn1Cc1cc(-c2ccc(C#C[C@@H]3[C@H]4CN(C(=O)CCC(=O)O)C[C@@H]34)cc2)on1 [Compound 95, 4-[(1R,5S,6s)-6-({4-[3-({2-[(1S)-1-hydroxyethyl]-1H-imidazol-1-yl}methyl)-1,2-oxazol-5-yl]phenyl}ethynyl)-3-azabicyclo[3.1.0]hexan-3-yl]-4-oxobutanoic acid]",134,16,2,4,–,–,–,–
"C[C@H](O)c1nccn1[C@H](CO)c1cc(-c2ccc(C#C[C@@H]3[C@H]4CN(CCO)C[C@@H]34)cc2)on1 [Compound 96, (2S)-2-[5-(4-{[(1R,5S,6s)-3-(2-hydroxyethyl)-3-azabicyclo[3.1.0]hexan-6-yl]ethynyl}phenyl)-1,2-oxazol-3-yl]-2-{2-[(1S)-1-hydroxyethyl]-1H-imidazol-1-yl}ethan-1-ol]",259,4,1,2,–,–,–,–
"C[C@H](O)c1nccn1Cc1cc(-c2ccc(C#CC3CC(N(C)C)C3)cc2)on1 (stereo partly drawn) [Compound 97, (1S)-1-(i{[5-(4-{[3-(dimethylamino)cyclobutyl]ethynyl}phenyl)-1,2-oxazol-3-yl]methyl}-1H-imidazol-2-yl)ethan-1-ol]",99.7,32,4,8,–,–,–,–
"C[C@H](O)c1nccn1Cc1cc(-c2ccc(C#CC3CC(NC4CC4)C3)cc2)on1 (stereo partly drawn) [Compound 98, (1S)-1-(1-{[5-(4-{[3-(cyclopropylamino)cyclobutyl]ethynyl}phenyl)-1,2-oxazol-3-yl]methyl}-1H-imidazol-2-yl)ethan-1-ol]",51.4,16,0.25,0.5,–,–,–,–
